From the RepoRT retention time repository (doi:10.1021/acs.analchem.1c00972)

Legend:
Conditions in all cases: stereoisomer not certain
[1] = RP, Waters ACQUITY UPLC BEH C18, 100 × 1 mm, 1.7 µm, 50 °C, 0.3 mL/min, estimated dead time 0.17 min; A: water + 10 mM ammonium bicarbonate; B: 10% water + 90% methanol + 10 mM ammonium bicarbonate; gradient (min/%B) 0/0 15/100 21/100 22/0 30/0
[2] = RP, Phenomenex Synergi Polar-RP, 100 × 3 mm, 2.5 µm, 40 °C, 0.4 mL/min, estimated dead time 1.1 min; A: water + 1 mM ammonium fluoride; B: methanol + 1 mM ammonium fluoride; C: acetonitrile; D: 50% isopropanol + 50% acetone; gradient (min/%B/%C/%D) 0/5/0/0 2/5/0/0 8/95/0/0 12/80/15/0 19/25/70/0 19.5/0/25/70 21.5/0/25/70 22.5/0/25/0 23/5/0/0
[3] = RP, Waters ACQUITY UPLC BEH C18, 100 × 1 mm, 1.7 µm, 50 °C, 0.3 mL/min, estimated dead time 0.17 min; A: water + 0.1% formic acid + 20 mM ammonium formate; B: methanol + 0.1% formic acid + 20 mM ammonium formate; gradient (min/%B) 0/0 15/100 21/100 22/0 30/0

CCOC(=O)c1ccc(O)cc1 [Ethylparaben] showed an LC retention time [1] of 11.1 min, an LC retention time [2] of 9.81 min and an LC retention time [3] of 11.6 min.

For N#Cc1nn(-c2c(Cl)cc(C(F)(F)F)cc2Cl)c(N)c1C(F)(F)F [Fipronil desulfinyl], the LC retention time [1] was 15.4 min, the LC retention time [2] was 10.9 min and the LC retention time [3] was 15.1 min.

In the case of N#Cc1nn(-c2c(Cl)cc(C(F)(F)F)cc2Cl)c(N)c1SC(F)(F)F [Fipronil sulfide], the LC retention time [1] is reported as 15.8 min, the LC retention time [2] is reported as 11 min and the LC retention time [3] is reported as 15.4 min.

Compound N#Cc1nn(-c2c(Cl)cc(C(F)(F)F)cc2Cl)c(N)c1S(=O)(=O)C(F)(F)F [Fipronil sulfone] has an LC retention time [1] of 16 min, an LC retention time [2] of 11.1 min and an LC retention time [3] of 15.7 min.

With CC(C)C(=O)Nc1ccc([N+](=O)[O-])c(C(F)(F)F)c1 [Flutamide] the LC retention time [1] was 14.3 min, the LC retention time [2] was 10.7 min and the LC retention time [3] was 14.1 min.

NS(=O)(=O)c1cc2c(cc1Cl)NCNS2(=O)=O [Hydrochlorothiazide] gave an LC retention time [1] of 4.67 min, an LC retention time [2] of 7.62 min and an LC retention time [3] of 5.2 min.

With COC(=O)c1ccc(O)cc1 [Methylparaben] the LC retention time [1] was 9.08 min, the LC retention time [2] was 9.32 min and the LC retention time [3] was 9.98 min.

Work on CC(=O)Nc1ccc(O)c(C(=O)O)c1 [N-Acetyl mesalazine] yielded an LC retention time [1] of 4.58 min, an LC retention time [2] of 2.92 min and an LC retention time [3] of 6.82 min.

In the case of O=C(O)C(F)(F)C(F)(F)C(F)(F)F [Perfluorobutanoic acid], the LC retention time [1] is reported as 7.16 min, the LC retention time [2] is reported as 2.91 min and the LC retention time [3] is reported as 7.57 min.

With O=C(O)C(F)(F)C(F)(F)C(F)(F)C(F)(F)C(F)(F)C(F)(F)C(F)(F)C(F)(F)C(F)(F)F [Perfluorodecanoic acid] the LC retention time [1] was 16.1 min, the LC retention time [2] was 9.39 min and the LC retention time [3] was 15.9 min.

In the case of O=C(O)C(F)(F)C(F)(F)C(F)(F)C(F)(F)C(F)(F)C(F)(F)F [Perfluoroheptanoic acid], the LC retention time [1] is reported as 13.9 min, the LC retention time [2] is reported as 11.3 min and the LC retention time [3] is reported as 13.8 min.

O=C(O)C(F)(F)C(F)(F)C(F)(F)C(F)(F)C(F)(F)F [Perfluorohexanoic acid] showed an LC retention time [1] of 12.7 min, an LC retention time [2] of 8.19 min and an LC retention time [3] of 12.7 min.

With NS(=O)(=O)C(F)(F)C(F)(F)C(F)(F)C(F)(F)C(F)(F)C(F)(F)C(F)(F)C(F)(F)F [Perfluorooctanesulfonamide] the LC retention time [1] was 15.7 min, the LC retention time [2] was 10.6 min and the LC retention time [3] was 16.5 min.

Work on O=C(O)C(F)(F)C(F)(F)C(F)(F)C(F)(F)C(F)(F)C(F)(F)C(F)(F)F [Perfluorooctanoic acid] yielded an LC retention time [1] of 14.8 min, an LC retention time [2] of 8.97 min and an LC retention time [3] of 14.7 min.

For O=C(O)C(F)(F)C(F)(F)C(F)(F)C(F)(F)C(F)(F)C(F)(F)C(F)(F)C(F)(F)C(F)(F)C(F)(F)C(F)(F)C(F)(F)C(F)(F)F [Perfluorotetradecanoic acid], the LC retention time [1] was 17.7 min, the LC retention time [2] was 9.93 min and the LC retention time [3] was 17.7 min.

CCC(C)C(=O)OC1CC(O)C=C2C=CC(C)C(CCC(O)CC(O)CC(=O)O)C21 (stereo not drawn) [Pravastatin] gave an LC retention time [1] of 12.1 min, an LC retention time [2] of 9.42 min and an LC retention time [3] of 13.3 min.

Compound CCCOC(=O)c1ccc(O)cc1 [Propylparaben] has an LC retention time [1] of 12.7 min, an LC retention time [2] of 10.2 min and an LC retention time [3] of 12.9 min.

For O=C1NS(=O)(=O)c2ccccc21 [Saccharin], the LC retention time [1] was 4.9 min, the LC retention time [2] was 3.01 min and the LC retention time [3] was 5.37 min.

CC(C)(c1cc(Br)c(O)c(Br)c1)c1cc(Br)c(O)c(Br)c1 [Tetrabromobisphenol A] gave an LC retention time [1] of 14.6 min, an LC retention time [2] of 11.7 min and an LC retention time [3] of 16.6 min.

Compound O=C(Nc1ccc(Cl)c(Cl)c1)c1cc(Cl)cc(Cl)c1O [Tetrachlorosalicylanilide] has an LC retention time [1] of 14.9 min, an LC retention time [2] of 10.2 min and an LC retention time [3] of 17.7 min.

For CCCCCCCCCCCCCCOS(=O)(=O)O [Tetradecylsulfate], the LC retention time [1] was 17.4 min, the LC retention time [2] was 9.97 min and the LC retention time [3] was 17.2 min.
